# Source: ChEMBL document CHEMBL2146373, “How to blast osteoblasts? Novel dicarba analogues of amylin-(1-8) to treat osteoporosis” (Bioorg Med Chem, 2012)
# Calls of active or inactive are those of the source. The calls are words filed in the database; no cut-off is given here.
# Test system: Osteoblast
# Test: Osteoblast activity in neonatal rat calvarie-derived primary osteoblasts assessed as [3H]thymidine incorporation at 10^-10 to 10^-8 M by beta counting
# Type: functional, cell-based
row,Compound,Activity
1,C[C@H](NC(=O)[C@@H]1CCCCNC(=O)OCC=CCOC(=O)NCCCC[C@H](NC(=O)[C@@H](N)CCCCN)C(=O)N[C@@H](CC(N)=O)C(=O)N[C@@H]([C@@H](C)O)C(=O)N[C@@H](C)C(=O)N[C@@H]([C@@H](C)O)C(=O)N1)C(N)=O (mixture of isomers; 5b),Active
2,C[C@H](NC(=O)[C@@H]1CC=CC[C@H](NC(=O)[C@@H](N)CCCCN)C(=O)N[C@@H](CC(N)=O)C(=O)N2CCC[C@H]2C(=O)N[C@@H](C)C(=O)N[C@@H]([C@@H](C)O)C(=O)N1)C(N)=O (mixture of isomers; 2b),inactive
3,C[C@H](NC(=O)[C@@H]1CC=CC[C@H](NC(=O)[C@@H](N)CCCCN)C(=O)N[C@@H](CC(N)=O)C(=O)N2CCC[C@H]2C(=O)N[C@@H](C)C(=O)N[C@@H]([C@@H](C)O)C(=O)N1)C(N)=O (mixture of isomers; 2a),inactive
4,C[C@H](NC(=O)[C@@H]1CCCCNC(=O)OCC=CCOC(=O)NCCCC[C@H](NC(=O)[C@@H](N)CCCCN)C(=O)N[C@@H](CC(N)=O)C(=O)N[C@@H]([C@@H](C)O)C(=O)N[C@@H](C)C(=O)N[C@@H]([C@@H](C)O)C(=O)N1)C(N)=O (mixture of isomers; 5a),Active
5,C[C@H](NC(=O)[C@@H]1CC=CC[C@H](NC(=O)[C@@H](N)CCCCN)C(=O)N[C@@H](CC(N)=O)C(=O)N[C@@H]([C@@H](C)O)C(=O)N[C@@H](C)C(=O)N[C@@H]([C@@H](C)O)C(=O)N1)C(N)=O (mixture of isomers),Active
